ChEMBL document CHEMBL1201862, “PubChem BioAssay data set” (2004)
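Tested at 5 concentrations; 48 h exposure; 96-well plates; endpoints linearly interpolated, else capped at highest concentration. At the GI50, growth is halved.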 Active and inactive are the calls of the source. Cut-off read from the data, not from the text of the source: active = GI50 up to about 1.1 µM and inactive = higher.

Experiments:
Test in all cases: growth of human tumour cells (NCI), 48 h
KM12 = tested on: KM12
OVCAR-8 = tested on: OVCAR-8
K562 = tested on: K562
COLO 205 = tested on: COLO 205
OVCAR-3 = tested on: OVCAR-3
BT-549 = tested on: BT-549
HOP-62 = tested on: HOP-62
SW-620 = tested on: SW-620
NCI-H460 = tested on: NCI-H460
NCI-H23 = tested on: NCI-H23
CCRF-CEM = tested on: CCRF-CEM
MCF7 = tested on: MCF7
SN12C = tested on: SN12C
SNB-19 = tested on: SNB-19
HL-60 = tested on: HL-60
LOX IMVI = tested on: LOX IMVI
OVCAR-5 = tested on: OVCAR-5
HT-29 = tested on: HT-29
SK-MEL-2 = tested on: SK-MEL-2

| SMILES | GI50 (KM12) | GI50 (OVCAR-8) | GI50 (K562) | GI50 (COLO 205) | GI50 (OVCAR-3) | GI50 (BT-549) | GI50 (HOP-62) | GI50 (SW-620) | GI50 (NCI-H460) | GI50 (NCI-H23) | GI50 (CCRF-CEM) | GI50 (MCF7) | GI50 (SN12C) | GI50 (SNB-19) | GI50 (HL-60) | GI50 (LOX IMVI) | GI50 (OVCAR-5) | GI50 (HT-29) | GI50 (SK-MEL-2) |
| --- | --- | --- | --- | --- | --- | --- | --- | --- | --- | --- | --- | --- | --- | --- | --- | --- | --- | --- | --- |
| CC(=O)Oc1ccc2c(c1)O/C(=C\c1ccc(O)cc1)C2=O | > 100 µM (inactive) | > 100 µM (inactive) | > 100 µM (inactive) | > 100 µM (inactive) | > 100 µM (inactive) | > 100 µM (inactive) | > 100 µM (inactive) | > 100 µM (inactive) | > 100 µM (inactive) | > 100 µM (inactive) | > 100 µM (inactive) | > 100 µM (inactive) | > 100 µM (inactive) | > 100 µM (inactive) | > 100 µM (inactive) |  |  |  |  |
| CC1=C2c3ccccc3N(S(=O)(=O)c3ccccc3)[C@H]2[C@H](C(=O)N2C3CC4CC[C@@]3(CS2(=O)=O)C4(C)C)CC1 (some centres undefined) | 49.5 µM (inactive) | 21.6 µM (inactive) | 7.24 µM (inactive) | 47.9 µM (inactive) | 17 µM (inactive) | 8.28 µM (inactive) | 16.4 µM (inactive) | > 100 µM (inactive) | 5.48 µM (inactive) | 40.6 µM (inactive) | 35.3 µM (inactive) | 18 µM (inactive) | 39.1 µM (inactive) | 24.9 µM (inactive) | 0.641 µM (active) | 23.6 µM (inactive) | > 100 µM (inactive) | 17.6 µM (inactive) |  |
| C=CCNC(=O)NC1=CSC2=NC(=O)C3(NN12)c1ccccc1-c1ccccc13 | > 10 µM (inactive) | > 10 µM (inactive) | > 10 µM (inactive) | > 10 µM (inactive) |  | > 10 µM (inactive) | > 10 µM (inactive) | > 10 µM (inactive) | > 10 µM (inactive) | > 10 µM (inactive) | > 10 µM (inactive) | > 10 µM (inactive) | > 10 µM (inactive) | > 10 µM (inactive) | > 10 µM (inactive) | > 10 µM (inactive) | > 10 µM (inactive) | > 10 µM (inactive) |  |
| CC(=O)N1CCOC12N=NC(C)(C)O2 (centres undefined) | > 100 µM (inactive) | > 100 µM (inactive) | > 100 µM (inactive) | > 100 µM (inactive) | > 100 µM (inactive) | > 100 µM (inactive) | > 100 µM (inactive) | > 100 µM (inactive) | > 100 µM (inactive) | > 100 µM (inactive) |  | > 100 µM (inactive) | > 100 µM (inactive) | > 100 µM (inactive) |  | > 100 µM (inactive) | > 100 µM (inactive) | > 100 µM (inactive) | > 100 µM (inactive) |
| CC1(C)OCC(C2OC(OC(=O)c3ccc(C(F)(F)F)cc3)C3OC(C)(C)OC23)O1 (centres undefined) | 72.3 µM (inactive) | > 77.4 µM (inactive) | > 77.4 µM (inactive) | > 77.4 µM (inactive) | > 77.4 µM (inactive) | > 77.4 µM (inactive) | 39.9 µM (inactive) | > 77.4 µM (inactive) | 49.5 µM (inactive) | 58.3 µM (inactive) | 28.2 µM (inactive) | 53.3 µM (inactive) | > 77.4 µM (inactive) | > 77.4 µM (inactive) |  | > 77.4 µM (inactive) | > 77.4 µM (inactive) | 73.1 µM (inactive) | > 77.4 µM (inactive) |
| COc1ccc2c(c1)CC[C@@H]1C2CC[C@]2(C)C(=O)N(CCN(C)C)C(=O)CC12 (some centres undefined) | > 100 µM (inactive) | > 100 µM (inactive) | > 100 µM (inactive) | > 100 µM (inactive) | > 100 µM (inactive) | > 100 µM (inactive) | > 100 µM (inactive) | > 100 µM (inactive) | > 100 µM (inactive) | > 100 µM (inactive) | > 100 µM (inactive) | > 100 µM (inactive) | > 100 µM (inactive) | > 100 µM (inactive) | > 100 µM (inactive) |  | > 100 µM (inactive) | > 100 µM (inactive) |  |
| COC(=O)C1(C)C=CC(=O)C2(C)C1C(O)C1OC3CC(c4ccoc4)C(C)=C3C1(C)C2CC(=O)O (centres undefined) | > 100 µM (inactive) | > 100 µM (inactive) |  | > 100 µM (inactive) | > 100 µM (inactive) | > 100 µM (inactive) |  | > 100 µM (inactive) | > 100 µM (inactive) | > 100 µM (inactive) | > 100 µM (inactive) | > 100 µM (inactive) | > 100 µM (inactive) | > 100 µM (inactive) | > 100 µM (inactive) | > 100 µM (inactive) | > 100 µM (inactive) |  | > 100 µM (inactive) |
| c1ccc2/c3[nH]/c(c2c1)=N\c1ccc(cc1)-c1nc2cc(ccc2o1)/N=c1/[nH]/c(c2ccccc12)=N/c1ccc2nc(oc2c1)-c1ccc(cc1)\N=3 | 81.1 µM (inactive) |  | > 100 µM (inactive) | > 100 µM (inactive) |  | > 100 µM (inactive) | 78.3 µM (inactive) | > 100 µM (inactive) | 51.8 µM (inactive) | > 100 µM (inactive) | > 100 µM (inactive) | > 100 µM (inactive) | > 100 µM (inactive) | > 100 µM (inactive) | > 100 µM (inactive) | > 100 µM (inactive) | > 100 µM (inactive) | 49.4 µM (inactive) |  |
